pIC50: −log10 of the molar value. Values joined by “and” are separate entries in the source; they are usually repeats but may differ in a detail not shown here. Identical values can stand only once. Like-named read-outs stand apart in the source and are kept apart here.
Tests used:
[1] = molecular target: KRAS G12D (Homo sapiens, UniProt P01116+P62937, G12D); test: Disruption of BRAF RBD interaction with Ras (FRET / MOA assay, with Cyclophilin A); assay type: biochemical
Text: (§1) This protocol may also be executed substituting other Ras proteins or nucleotides.
(§2) The purpose of this biochemical assay was to measure the ability of test compounds to facilitate ternary complex formation between a nucleotide-loaded K-Ras isoform and Cyclophilin A; the resulting ternary complex disrupts binding to a BRAF^RBD construct, inhibiting K-Ras signaling through a RAF effector. Data is reported as IC50 values.
(§3) Compound was present in plate wells as a 10-point 3-fold dilution series starting at a final concentration of 30 μM. After incubation at 25° C. for 3 hours, a mixture of Anti-His Eu-W1024 and anti-GST allophycocyanin was then added to assay sample wells at final concentrations of 10 nM and 50 nM, respectively, and the reaction incubated for an additional 1.5 hours. […] Compounds that facilitate disruption of a K-Ras:RAF complex were identified as those eliciting a decrease in the TR-FRET ratio relative to DMSO control wells.
as §2, with “BRAF^RBDD” for “BRAF^RBD”

[2] = molecular target: NRAS G12C (Homo sapiens, UniProt P01111+P62937, G12C); test: as above; assay type: biochemical
Text: as §1, §2, §3
as §2, with “BRAF^RBDD” for “BRAF^RBD”

[3] = molecular target: KRAS G13D (Homo sapiens, UniProt P01116+P62937, G13D); test: as above; assay type: biochemical
Text: as §1, §2, §3
as §2, with “BRAF^RBDD” for “BRAF^RBD”

[4] = molecular target: KRAS WT (Homo sapiens, UniProt P01116+P62937); test: as above; assay type: biochemical
Text: as §1, §2, §3
as §2, with “BRAF^RBDD” for “BRAF^RBD”

[5] = molecular target: KRAS G12V (Homo sapiens, UniProt P01116+P62937, G12V); test: as above; assay type: biochemical
Text: as §1, §2, §3
as §2, with “BRAF^RBDD” for “BRAF^RBD”

[6] = molecular target: KRAS G12S (Homo sapiens, UniProt P01116+P62937, G12S); test: as above; assay type: biochemical
Text: as §1, §2, §3
as §2, with “BRAF^RBDD” for “BRAF^RBD”

[7] = molecular target: KRAS G13C (Homo sapiens, UniProt P01116+P62937, G13C); test: as above; assay type: biochemical
Text: as §1, §2, §3
as §2, with “BRAF^RBDD” for “BRAF^RBD”

[8] = molecular target: KRAS G12C (Homo sapiens, UniProt P01116+P62937, G12C); test: as above; assay type: biochemical
Text: as §1, §2, §3
as §2, with “BRAF^RBDD” for “BRAF^RBD”

[9] = tested on: NCI-H358 (K-Ras G12C); test: CellTiter-Glo cell viability assay, 5-day treatment; assay type: cell-based; details: Homo sapiens, NCI-H358, 120 h, 5-day treatment
Method: Protocol: CellTiter-Glo® Cell Viability Assay
Note—The following protocol describes a procedure for monitoring cell viability of K-Ras mutant cancer cell lines in response to a compound of the invention. Other RAS isoforms may be employed, though the number of cells to be seeded will vary based on cell line used.
(§4) Test compounds (132.5 nL) were directly dispensed into the assay plates containing cells. […] On day 5, assay plates and their contents were equilibrated to room temperature for approximately 30 minutes. […] Luminescence was measured using the PerkinElmer Enspire. Data were normalized by the following: (Sample signal/Avg. DMSO)*100. The data were fit using a four-parameter logistic fit.
as §4, with “nl)” for “nL)”

[10] = read-out: KRAS G12D FRET data, IC50
[11] = NRAS G12C, read-out: NRAS G12C FRET data IC50
[12] = KRAS G13D, read-out: KRAS G13D FRET data IC50
[13] = KRAS WT, read-out: KRAS WT FRET data IC50
[14] = KRAS G12V, read-out: KRAS G12V FRET data IC50
[15] = read-out: KRAS G12S FRET data, IC50
[16] = read-out: KRAS G13C FRET data, IC50
[17] = read-out: KRAS G12C FRET data, IC50
[18] = read-out: H358 Cell Viability assay data (K-Ras G12C, IC50)
[19] = NRAS G12C FRET data IC50, NRAS G12C
[20] = KRAS G13D FRET data IC50, KRAS G13D
[21] = KRAS WT FRET data IC50, KRAS WT
[22] = KRAS G12V FRET data IC50, KRAS G12V

KRAS G12C, sequence (P01116 1-169 isoform P01116-2 G12C): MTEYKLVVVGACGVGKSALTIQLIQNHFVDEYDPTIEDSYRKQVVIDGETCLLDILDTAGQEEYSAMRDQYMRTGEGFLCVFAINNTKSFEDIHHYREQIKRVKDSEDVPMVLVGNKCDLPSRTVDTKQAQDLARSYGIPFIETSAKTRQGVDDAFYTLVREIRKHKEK
KRAS G12C, sequence (P62937 whole entry): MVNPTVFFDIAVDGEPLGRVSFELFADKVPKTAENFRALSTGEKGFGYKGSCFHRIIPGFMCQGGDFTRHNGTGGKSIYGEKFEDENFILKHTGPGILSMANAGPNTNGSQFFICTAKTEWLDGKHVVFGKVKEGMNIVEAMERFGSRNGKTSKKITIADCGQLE
KRAS WT, sequence (P01116 1-169 isoform P01116-2 limits assumed): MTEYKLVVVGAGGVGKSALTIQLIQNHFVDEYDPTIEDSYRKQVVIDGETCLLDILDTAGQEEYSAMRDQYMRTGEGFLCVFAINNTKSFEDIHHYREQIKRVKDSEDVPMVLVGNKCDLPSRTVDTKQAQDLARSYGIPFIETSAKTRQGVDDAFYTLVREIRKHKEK
KRAS WT, sequence (P62937 whole entry): as the sequence (P62937 whole entry) above
KRAS G13C, sequence (P01116 1-169 isoform P01116-2 G13C): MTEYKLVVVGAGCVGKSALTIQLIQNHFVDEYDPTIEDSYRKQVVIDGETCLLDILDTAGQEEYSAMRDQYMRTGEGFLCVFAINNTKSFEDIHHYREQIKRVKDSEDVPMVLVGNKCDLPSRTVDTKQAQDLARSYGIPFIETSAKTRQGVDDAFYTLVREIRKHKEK
KRAS G13C, sequence (P62937 whole entry): as the sequence (P62937 whole entry) above
KRAS G12V, sequence (P01116 1-169 isoform P01116-2 G12V limits assumed): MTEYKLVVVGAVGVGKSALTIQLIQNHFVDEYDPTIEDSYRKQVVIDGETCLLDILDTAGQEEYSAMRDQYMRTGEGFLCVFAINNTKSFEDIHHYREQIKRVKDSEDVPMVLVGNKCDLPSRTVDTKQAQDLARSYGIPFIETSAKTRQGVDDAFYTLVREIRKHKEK
KRAS G12V, sequence (P62937 whole entry): as the sequence (P62937 whole entry) above
KRAS G12D, sequence (P01116 1-169 isoform P01116-2 G12D limits assumed): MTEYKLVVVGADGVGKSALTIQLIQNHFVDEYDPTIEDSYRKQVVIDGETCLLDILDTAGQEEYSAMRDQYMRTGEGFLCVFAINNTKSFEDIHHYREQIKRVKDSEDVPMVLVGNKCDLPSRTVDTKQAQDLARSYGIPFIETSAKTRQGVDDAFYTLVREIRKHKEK
KRAS G12D, sequence (P62937 whole entry): as the sequence (P62937 whole entry) above
KRAS G13D, sequence (P01116 1-169 isoform P01116-2 G13D limits assumed): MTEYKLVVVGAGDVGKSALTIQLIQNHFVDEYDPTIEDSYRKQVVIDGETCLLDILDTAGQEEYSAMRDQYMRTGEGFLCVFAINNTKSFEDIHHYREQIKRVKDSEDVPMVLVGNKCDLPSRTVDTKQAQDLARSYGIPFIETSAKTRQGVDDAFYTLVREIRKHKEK
KRAS G13D, sequence (P62937 whole entry): as the sequence (P62937 whole entry) above
KRAS G12S, sequence (P01116 1-169 isoform P01116-2 G12S limits assumed): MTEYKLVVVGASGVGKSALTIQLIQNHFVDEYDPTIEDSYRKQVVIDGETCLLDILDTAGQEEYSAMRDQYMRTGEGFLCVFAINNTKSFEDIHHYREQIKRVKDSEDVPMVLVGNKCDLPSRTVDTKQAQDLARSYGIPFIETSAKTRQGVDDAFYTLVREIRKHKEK
KRAS G12S, sequence (P62937 whole entry): as the sequence (P62937 whole entry) above
NRAS G12C, sequence (P01111 whole entry G12C): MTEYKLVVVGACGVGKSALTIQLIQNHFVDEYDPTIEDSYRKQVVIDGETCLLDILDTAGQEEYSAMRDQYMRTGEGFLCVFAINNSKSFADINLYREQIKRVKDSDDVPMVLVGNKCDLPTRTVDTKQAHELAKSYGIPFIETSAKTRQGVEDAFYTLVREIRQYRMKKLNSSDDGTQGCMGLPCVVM
NRAS G12C, sequence (P62937 whole entry): as the sequence (P62937 whole entry) above

| SMILES | pIC50 [1, 10] | pIC50 [2, 11] | pIC50 [3, 12] | pIC50 [4, 13] | pIC50 [5, 14] | pIC50 [6, 15] | pIC50 [7, 16] | pIC50 [8, 17] | pIC50 [9, 18] | pIC50 ([1]; KRAS G12D FRET data, IC50) | pIC50 [2, 19] | pIC50 [3, 20] | pIC50 [4, 21] | pIC50 [5, 22] | pIC50 ([6]; KRAS G12S FRET data, IC50) | pIC50 ([7]; KRAS G13C FRET data, IC50) | pIC50 ([8]; KRAS G12C FRET data, IC50) | other results |
| --- | --- | --- | --- | --- | --- | --- | --- | --- | --- | --- | --- | --- | --- | --- | --- | --- | --- | --- |
| CCn1c(-c2cnccc2COC)c2c3cc(ccc31)-c1cc(O)cc(c1)C[C@H](NC(=O)[C@H](C(C)C)N(C)C(=O)[C@H]1CCN(C(=O)C3COC3)C1)C(=O)N1CCC[C@H](N1)C(=O)OCC(C)(C)C2 [Example A9] | 5.00 to 6.00 | 6.00 to 7.00 | 6.00 to 7.00 | 6.00 to 7.00 | 6.00 to 7.00 | 6.00 to 7.00 | 6.00 to 7.00 | 7.00 to 8.00 | 5.00 to 6.00 |  |  |  |  |  |  |  |  |  |
| CCn1c(-c2cccnc2COC)c2c3cc(ccc31)-c1cc(O)cc(c1)C[C@H](NC(=O)[C@H](C(C)C)N(C)C(=O)[C@H]1CCN(C(=O)CN)C1)C(=O)N1CCC[C@H](N1)C(=O)OCC(C)(C)C2 [Example A12] | 6.00 to 7.00 and 5.00 to 6.00 | 5.00 to 6.00 | 6.00 to 7.00 and 5.00 to 6.00 | 6.00 to 7.00 and 5.00 to 6.00 | 6.00 to 7.00 and 5.00 to 6.00 | 6.00 to 7.00 and 5.00 to 6.00 | 6.00 to 7.00 and 5.00 to 6.00 | 6.00 to 7.00 and 7.00 to 8.00 |  |  |  |  |  |  |  |  |  | pIC50 ([1]; read-out: FRET G12D IC50): 6.81; pIC50 ([3]; read-out: FRET G13D IC50): 6.66; pIC50 ([5]; read-out: FRET G12V IC50): 6.48; pIC50 ([7]; read-out: FRET G13C IC50): 6.83; pIC50 ([8]; read-out: FRET G12C IC50): 7.17; pIC50 ([9]; read-out: H358 Cell Viability IC50): 5.37 |
| CCn1c(-c2cnccc2COC)c2c3cc(ccc31)-c1cc(O)cc(c1)C[C@H](NC(=O)[C@H](C(C)C)N(C)C(=O)[C@H]1CCN(CCO)C1)C(=O)N1CCC[C@H](N1)C(=O)OCC(C)(C)C2 [Example A23, (2S)—N-[(8S,14S)-22-ethyl-4-hydroxy-21-[4-(methoxymethyl)pyridin-3-yl]-18,18-dimethyl-9,15-dioxo-16-oxa-10,22,28-triazapentacyclo[18.5.2.1^2,6.1^10,14.0^23,27]nonacosa-1(26),2,4,6(29),20,23(27),24-heptaen-8-yl]-2-{1-[(3S)-1-(2-hydroxyethyl)pyrrolidin-3-yl]-N-methylformamido}-3-methylbutanamide] |  |  |  |  |  |  |  |  | 5.00 to 6.00 | 6.00 to 7.00 | 6.00 to 7.00 | 7.00 to 8.00 | 7.00 to 8.00 | 5.00 to 6.00 | 6.00 to 7.00 | 7.00 to 8.00 | 6.00 to 7.00 |  |

More lines, main results first:

| pIC50 [1, 10] | pIC50 [2, 11] | pIC50 [3, 12] | pIC50 [4, 13] | pIC50 [5, 14] | pIC50 [6, 15] | pIC50 [7, 16] | pIC50 [8, 17] | pIC50 [9, 18] | SMILES | pIC50 ([1]; KRAS G12D FRET data, IC50) | pIC50 [2, 19] | pIC50 [3, 20] | pIC50 [4, 21] | pIC50 [5, 22] | pIC50 ([6]; KRAS G12S FRET data, IC50) | pIC50 ([7]; KRAS G13C FRET data, IC50) | pIC50 ([8]; KRAS G12C FRET data, IC50) | other results |
| --- | --- | --- | --- | --- | --- | --- | --- | --- | --- | --- | --- | --- | --- | --- | --- | --- | --- | --- |
| 6.00 to 7.00 | 7.00 to 8.00 | 7.00 to 8.00 | 7.00 to 8.00 | 6.00 to 7.00 | 7.00 to 8.00 | 7.00 to 8.00 | 7.00 to 8.00 | 5.00 to 6.00 | CCn1c(-c2cnccc2COC)c2c3cc(ccc31)-c1cc(O)cc(c1)C[C@H](NC(=O)[C@H](C(C)C)N(C)C(=O)[C@H]1CCNC1)C(=O)N1CCC[C@H](N1)C(=O)OCC(C)(C)C2 [Example A10] |  |  |  |  |  |  |  |  |  |
|  |  |  |  |  |  |  |  | 5.00 to 6.00 | CCn1c(-c2cnccc2COC)c2c3cc(ccc31)-c1cc(O)cc(c1)C[C@H](NC(=O)[C@H](C(C)C)N(C)C(=O)[C@H]1CCN(C)C1)C(=O)N1CCC[C@H](N1)C(=O)OCC(C)(C)C2 [Example A27, (2S)—N-[(8S,14S)-22-ethyl-4-hydroxy-21-[4-(methoxymethyl)pyridin-3-yl]-18,18-dimethyl-9,15-dioxo-16-oxa-10,22,28-triazapentacyclo[18.5.2.1^2,6.1^10,14.0^23,27]nonacosa-1(26),2,4,6(29),20,23(27),24-heptaen-8-yl]-3-methyl-2-{N-methyl-1-[(3S)-1-methylpyrrolidin-3-yl]formamido}butanamide] | 6.00 to 7.00 | 6.00 to 7.00 | 7.00 to 8.00 | 6.00 to 7.00 | 5.00 to 6.00 | 6.00 to 7.00 | 7.00 to 8.00 | 6.00 to 7.00 |  |
